Values joined by “and” are separate entries in the source; they are usually repeats but may differ in a detail not shown here. Equal values may be shown once. Where a name gives a salt, the structure may show the parent alone.
Legend:
Type in all cases: physicochemical
[1] = Polymorph screening test, suspension method (crystal form by XRPD after stirring in solvent); details: for Crystal form (XRPD) / Crystal form (XRPD)/85° C.: mesylate screening, 3 days
Description: (or 50° C.) for 3 days in the dark and centrifuged to remove the supernatant; the resulting precipitate was dried under vacuum (25° C., −0.1 MPa); and the resulting solid was collected and subjected to the XRPD test. The results are as follows:
(or 50° C./80° C.) for 3 days in the dark and centrifuged to remove the supernatant; and the resulting precipitate was dried under vacuum (25° C., −0.1 MPa).
(or 50° C.) for 3 days in the dark and centrifuged to remove the supernatant; and the resulting precipitate was dried under vacuum (25° C., −0.1 MPa).

[2] = Stability of crystal forms under stability test conditions (appearance, XRPD, HPLC)
Description: The samples were placed under the stability conditions shown in the following table, sampling was performed at the corresponding time points, and the samples were subjected to appearance and XRPD tests. […] The stability results obtained are recorded in the following table. […] The samples were placed under the stability test conditions shown in the following table, sampling was performed at different time points, and the samples were subjected to the XRPD test. […] The samples were placed in an open state under the stability test conditions of 40° C./75% RH and 90% RH; and the samples were placed in a closed state at 60° C. in a light box (the test samples in the dark were placed in the same manner as the illumination test samples, and the treatment was performed in the dark). Sampling was performed at different time points, and the samples were subjected to the XRPD test. […] The samples were placed under the stability conditions shown in the following table, sampling was performed at the corresponding time points, and the samples were subjected to appearance and XRPD tests. […] The stability results obtained are recorded in the following table.

[3] = Dynamic vapor sorption (DVS) hygroscopicity test; details: 25° C. and 80% RH
Excerpt: In the present disclosure, the DVS test parameters are set as follows: [table]

[4] = Polymorph screening test, suspension method (crystal form by XRPD after stirring in solvent); details: mesylate screening, suspension in Toluene, 3 days
[5] = Polymorph screening test, diffusion method (crystal form by XRPD); details: mesylate screening, diffusion at room temperature
[6] = Solubility of mesylate crystal form A in buffers with different pH values at 37° C.
Description: Suspension states at 15 min, 2 h, 4 h, and 24 h were recorded; and different sample solutions at 15 min, 2 h, 4 h, and 24 h were collected and added to 1.5 mL centrifuge tubes. The suspensions were centrifuged at 12000 rpm for 2 min to obtain supernatants, and the supernatants were subjected to 2-fold dilution to obtain the sample solutions (the solutions were subjected to 10-fold dilution if the samples were dissolved completely). The residual substrates were centrifuged and subjected to the XRPD test.

- stability of crystal form in solvent, suspension method ([1]; ethanol, isopropanol, ethyl acetate, isopropyl acetate, methyl tert-butyl ether, tetrahydrofuran, N-methylpyrrolidone, methyl acetate, 2-methyltetrahydrofuran, cyclohexane, n-hexane, toluene, or n-heptane): relatively good stability
- crystal form when stirred in solvent ([1]; ethanol, isopropanol, ethyl acetate, isopropyl acetate, methyl tert-butyl ether, tetrahydrofuran, N-methylpyrrolidone, methyl acetate, 2-methyltetrahydrofuran, cyclohexane, n-hexane, toluene, or n-heptane at 25-50° C.): remained stable
- Crystal form (XRPD) ([1]; suspension in 1,4-Dioxane, 25° C.): Crystal form A
- Crystal form (XRPD) ([1]; suspension in 1,4-Dioxane, 50° C.): Crystal form E
- Crystal form (XRPD) ([1]; suspension in Acetone-water 1:1, 25° C.): Clear solution
- Crystal form (XRPD) ([1]; suspension in Acetone-water 1:1, 50° C.): Clear solution
- Crystal form (XRPD) ([1]; suspension in Acetonitrile-water 1:1, 25° C.): Clear solution
- Crystal form (XRPD) ([1]; suspension in Acetonitrile-water 1:1, 50° C.): Clear solution
- Crystal form (XRPD) ([1]; suspension in Dichloromethane, 25° C.): No solid sample
- Crystal form (XRPD) ([1]; suspension in Dichloromethane, 50° C.): No solid sample
- Crystal form (XRPD) ([1]; suspension in Dichloromethane/acetone (v/v, 1:1), 25° C.): Crystal form A
- Crystal form (XRPD) ([1]; suspension in Dichloromethane/acetone (v/v, 1:1), 50° C.): No solid sample
- Crystal form (XRPD) ([1]; suspension in Dichloromethane/methanol (v/v, 1:1), 25° C.): Clear solution
- Crystal form (XRPD) ([1]; suspension in Dichloromethane/methanol (v/v, 1:1), 50° C.): No solid sample
- Crystal form (XRPD)/85° C. ([1]; suspension in Dioxane): Crystal form A
- Crystal form (XRPD)/85° C. ([1]; suspension in MIBK): Crystal form A
- Crystal form (XRPD) ([1]; suspension in Methanol-water 1:1, 25° C.): Crystal form B
- Crystal form (XRPD) ([1]; suspension in Methanol-water 1:1, 50° C.): Clear solution
- Crystal form (XRPD) ([1]; suspension in Methyl tert-butyl ether, 25° C.): Crystal form A
- Crystal form (XRPD) ([1]; suspension in Methyl tert-butyl ether, 50° C.): Crystal form A
- Crystal form (XRPD) ([1]; suspension in Tetrahydrofuran, 25° C.): Crystal form A
- Crystal form (XRPD) ([1]; suspension in Tetrahydrofuran, 50° C.): Crystal form A
- Crystal form (XRPD) ([1]; suspension in Toluene, 25° C.): Crystal form A
- Crystal form (XRPD) ([1]; suspension in Toluene, 50° C.): Crystal form A
- Crystal form (XRPD) ([1]; suspension in Water, 25° C.): Crystal form B
- Crystal form (XRPD) ([1]; suspension in Water, 50° C.): Crystal form B
- Crystal form (XRPD) ([1]; suspension in n-Heptane, 25° C.): Crystal form A
- Crystal form (XRPD) ([1]; suspension in n-Heptane, 50° C.): Crystal form A
- Crystal form (XRPD)/85° C. ([1]; suspension in n-Heptane): Crystal form A
- crystal form when stirred in solvent ([1]; toluene or n-heptane at 25-85° C.): remained stable
- Crystal form result by XRPD test ([2]; 25° C./60% RH, 1 month): Crystal form A
- Crystal form result by XRPD test ([2]; 25° C./60% RH, 2 months): Crystal form A
- Crystal form result by XRPD test ([2]; 25° C./60% RH, 3 months): Crystal form A
- Crystal form result by XRPD test ([2]; 25° C./60% RH, 6 months): Crystal form A
- Crystal form result by XRPD test ([2]; 25° C./60% RH, 5 days): Crystal form A
- Crystal form result by XRPD test ([2]; 25° C./60% RH, 10 days): Crystal form A
- Crystal form result by XRPD test ([2]; 40° C./75% RH, 1 month): Crystal form A
- Crystal form result by XRPD test ([2]; 40° C./75% RH, 2 months): Crystal form A
- Crystal form result by XRPD test ([2]; 40° C./75% RH, 3 months): Crystal form A
- Crystal form result by XRPD test ([2]; 40° C./75% RH, 6 months): Crystal form A
- Crystal form result by XRPD test ([2]; 40° C./75% RH, 5 days): Crystal form A
- Crystal form result by XRPD test ([2]; 40° C./75% RH, 10 days): Crystal form A
- Crystal form result by XRPD test ([2]; 60° C., 1 month): Crystal form A
- Crystal form result by XRPD test ([2]; 60° C., 2 months): Crystal form A
- Crystal form result by XRPD test ([2]; 60° C., 3 months): Crystal form A
- Crystal form result by XRPD test ([2]; 60° C., 6 months): Crystal form A
- Crystal form result by XRPD test ([2]; 60° C., 5 days): Crystal form A
- Crystal form result by XRPD test ([2]; 60° C., 10 days): Crystal form A
- Crystal form result by XRPD test ([2]; 90% RH, 1 month): Crystal form A
- Crystal form result by XRPD test ([2]; 90% RH, 2 months): Crystal form A
- Crystal form result by XRPD test ([2]; 90% RH, 3 months): Crystal form A
- Crystal form result by XRPD test ([2]; 90% RH, 5 days): Crystal form A
- Crystal form result by XRPD test ([2]; 90% RH, 10 days): Crystal form A
- hygroscopic weight gain (DVS curve) [3]: 0.31±0.005% and 0.31%
- Crystal form (XRPD)/85° C. [4]: Crystal form A
- Crystal form (XRPD) ([5]; good solvent Dichloromethane, poor solvent Acetone): Crystal form A
- Crystal form (XRPD) ([5]; good solvent Dichloromethane, poor solvent Acetonitrile): Crystal forms A + B
- Crystal form (XRPD) ([5]; good solvent Dichloromethane, poor solvent Ethanol): Crystal form A
- Crystal form (XRPD) ([5]; good solvent Dichloromethane, poor solvent Ethyl acetate): Crystal forms A + B
- Crystal form (XRPD) ([5]; good solvent Dichloromethane, poor solvent Tetrahydrofuran): Crystal forms A + B
- Crystal form (XRPD) ([5]; good solvent Dimethyl sulfoxide, poor solvent Acetone): Clear solution
- Crystal form (XRPD) ([5]; good solvent Dimethyl sulfoxide, poor solvent Acetonitrile): Clear solution
- Crystal form (XRPD) ([5]; good solvent Dimethyl sulfoxide, poor solvent Ethanol): Clear solution
- Crystal form (XRPD) ([5]; good solvent Dimethyl sulfoxide, poor solvent Ethyl acetate): Clear solution
- Crystal form (XRPD) ([5]; good solvent Dimethyl sulfoxide, poor solvent Tetrahydrofuran): Clear solution
- Crystal form (XRPD) ([5]; good solvent Methanol, poor solvent Acetone): Clear solution
- Crystal form (XRPD) ([5]; good solvent Methanol, poor solvent Acetonitrile): Clear solution
- Crystal form (XRPD) ([5]; good solvent Methanol, poor solvent Ethyl acetate): Clear solution
- Crystal form (XRPD) ([5]; good solvent Methanol, poor solvent Tetrahydrofuran): Clear solution
- Crystal form (XRPD) ([5]; good solvent N,N-Dimethylformamide, poor solvent Acetone): Clear solution
- Crystal form (XRPD) ([5]; good solvent N,N-Dimethylformamide, poor solvent Acetonitrile): Clear solution
- Crystal form (XRPD) ([5]; good solvent N,N-Dimethylformamide, poor solvent Ethanol): Clear solution
- Crystal form (XRPD) ([5]; good solvent N,N-Dimethylformamide, poor solvent Ethyl acetate): Clear solution
- Crystal form (XRPD) ([5]; good solvent N,N-Dimethylformamide, poor solvent Tetrahydrofuran): Clear solution
- Concentration ([6]; 0.01N hydrochloric acid, 15 min): >6
- Concentration ([6]; 0.01N hydrochloric acid, 2 h): >6
- Concentration ([6]; 0.01N hydrochloric acid, 4 h): >6
- Concentration ([6]; 0.01N hydrochloric acid, 24 h): >6
- Concentration ([6]; Pure water, 15 min): 0.747
- Concentration ([6]; Pure water, 2 h): 4.930
- Concentration ([6]; Pure water, 4 h): 4.657
- Concentration ([6]; Pure water, 24 h): 4.567
- Concentration ([6]; pH 1.2, 15 min): >6
- Concentration ([6]; pH 1.2, 2 h): >6
- Concentration ([6]; pH 1.2, 4 h): >6
- Concentration ([6]; pH 1.2, 24 h): >6
- Concentration ([6]; pH 4.5, 15 min): >6
- Concentration ([6]; pH 4.5, 2 h): 0.044
- Concentration ([6]; pH 4.5, 4 h): 0.046
- Concentration ([6]; pH 6.8, 15 min): 0.003
- Concentration ([6]; pH 6.8, 2 h): 0.005
- Concentration ([6]; pH 6.8, 4 h): 0.005
- Concentration ([6]; pH 6.8, 24 h): 0.015
SMILES: Cc1cc(Nc2ncc(Cl)c(Nc3ccccc3S(=O)(=O)C(C)C)n2)c(OC(C)C)cc1C1=CCN(C2CCOCC2)CC1 [one equivalent of mesylate crystal form A]

Reference: patent US20260217692A1 (Ascentage Pharma (Suzhou) Co., Ltd., priority 2023, published 2026)
